# Experimental data as given in patent US20240018592A1, “METHODS OF ASSESSING THE THERAPEUTIC ACTIVITY OF AGENTS FOR THE TREATMENT OF IMMUNE DISORDERS” (Technion Research & Development Foundation Limited, priority 2020, published 2024).
# Tests used:
# Assay type in all cases: in vivo, human
# [1] = Infliximab drug levels and anti-drug antibodies (ADA) after first treatment; settings: drug level, mean ± SEM, levels >20 taken as 20
# Description: (§1) Sample collection: The cohort consisted of 24 Crohn's disease (CD) patients who received Infliximab anti-TNF treatment at the gastroenterology department of the Rambam Health Care Campus (RHCC) and met the study inclusion criteria as follows: 1) Adequately documented active luminal CD, as phenotyped by a gastroenterologist with expertise in IBD; 2) Documented decision to initiate full infliximab induction regimen with 5 mg/kg induction dosing (i.e. at weeks 0, 2, 6). Patients that had past exposure to Infliximab, Adalimumab or Vedolizumab, or patients who had active infection including febrile diseases or intra-abdominal or perianal abscess were excluded.
# (§2) Patient samples were obtained at three time points: at baseline, before infliximab treatment, and two and fourteen weeks post first treatment and assayed for gene expression microarray data.
# [2] = test system: immune age (IMM-AGE) score of peripheral blood; assay: Immune-age score from whole blood gene expression (Affymetrix Clariom S, single-sample GSEA) before and after infliximab
# From the text: as §2
# Blood transcriptome processing and analysis: Whole blood was preserved in PAXgene Blood RNA tubes (PreAnalytiX). RNA was extracted and assayed using Affymetrix Clariom S chips (Thermo Fisher Scientific). The raw gene array data were processed to obtain a log 2 expression value for each gene probe set using the RMA (robust multichip average) method available in the affy R package. Probe set annotation was performed using affycoretools and clariomshumantranscriptcluster.db packages in R. Data were further adjusted for batch effect using empirical Bayes framework applied by the Combat R package.
# Using a high-resolution longitudinal gene expression dataset from peripheral blood samples of 24 CD patients, 15 and 9 responding and non-responding patients, at three time points: pretreatment, 2 and 14 weeks post first treatment, the present inventors evaluated the samples' immune-age score reflecting the samples' position along the high dimensional IMM-AGE trajectory. To quantify the immune age of the CD patients, they used normalized gene expression measurements of the following genes: ABLIM1, AFF3, BACH2, BCL11A, BIRC3, BLNK, BTLA, C11orf31, C6orf48, CCR6, CCR7, CD200, CD22, CD27, CD28, CDCA7L, CHMP7, CR2, DPP4, E2F5, EPHX2, FAIM3, FAM102A, FAM134, FCRL1, FCRL2. HOOK1, HVCN1, IL6ST, IMPDH2, KIAA0748, LEF1, LRRN3, MYC, NELL2, NT5E, P2RX5, PAQR8, PLAG1, PTPRK, RCAN3, SCML1, SLC7A6, SNX9, STRBP, SUSD3, TCF4, TCF7, TCL1A, TCTN1, UXT, VPREB3, ZNF101, ZNF671, CRTC3, STAP1 and HLA-DOB.
# The immune-age of the CD patients was estimated by using single-sample GSEA algorithm (Barbie D A et al. Nature 462, 108-112 (2009)). An external IBD (CD and UC) disease specific molecular response axis was used to describe the patients' dynamics by generating a PCA on differential gene expression between active and in-active disease states treated with variety of treatment regimens (using public data, GSE94648).
# [3] = test system: Crohn's disease (CD) patients; assay: Infliximab induction treatment of Crohn's disease patients: clinical and laboratory outcome (CRP, albumin, HBI, clinical response, response classification); settings: for HBI 14 w post first treatment: Harvey-Bradshaw Index; for HBI 14 w post first treatment / Albumin 2 w post first treatment / Albumin 14 w post first treatment / CRP 2 w post first treatment / CRP 14 w post first treatment: mean ± SEM
# Description: as §1, §2
# Patient response classification was defined by decision algorithm, as described previously (Gaujoux et al. 2018). Briefly, patients were classified as responders based on clinical remission, which was defined as cessation of diarrhea and abdominal cramping or, in the cases of patients with fistulas, cessation of fistula drainage and complete closure of all draining fistulas at week 14, coupled with a decision of the treating physician to continue IFX therapy at the current dosing and schedule. Patients that were defined as partial responders, classification was determined by the decision algorithm that included the following hierarchical rules: 1) steroid dependency at week fourteen; 2) biomarker dynamics (Calprotectin and CRP) and 3) response according to clinical state at week 26.
# Applying the decision algorithm and exclusion criteria, yielded a final study cohort of 15 and 9 responding and non-responding patients, respectively.
# [4] = of 24 CD patients, classified by decision algorithm at week 14
substance,measurement,setting,value
Infliximab [IFX],IFX 2 w post first treatment,[1]; IFX non-responders (n = 9),8.9 ± 1.9 ng/µL
same,IFX 14 w post first treatment,[1]; IFX non-responders (n = 9),0.9 ± 0.3 ng/µL
same,IFX 2 w post first treatment,[1]; IFX responders (n = 15),10.7 ± 1.8 ng/µL
same,IFX 14 w post first treatment,[1]; IFX responders (n = 15),3.3 ± 0.5 ng/µL
same,shift of patients' immune age,[2]; cohort of 24 CD patients treated with anti-TNF (Infliximab),dramatically shift patients' immune age
same,immune age dynamics in responders,"[2]; responders versus non-responders, post treatment relative to baseline",shifted back their immune age and presented a significant drop
same,"immune age score in responders, early","[2]; responders, 2 weeks post treatment",significant reduced immune age score
same,HBI 14 w post first treatment,[3]; IFX non-responders (n = 9),5 ± 2.2
same,HBI 14 w post first treatment,[3]; IFX responders (n = 15),0.8 ± 0.3
same,Albumin 2 w post first treatment,[3]; IFX non-responders (n = 9),3.3 ± 0.3
same,Albumin 14 w post first treatment,[3]; IFX non-responders (n = 9),3.1 ± 0.2
same,CRP 2 w post first treatment,[3]; IFX non-responders (n = 9),8.8 ± 3.2
same,CRP 14 w post first treatment,[3]; IFX non-responders (n = 9),28.0 ± 13.6
same,Albumin 2 w post first treatment,[3]; IFX responders (n = 15),3.7 ± 0.1
same,Albumin 14 w post first treatment,[3]; IFX responders (n = 15),4.0 ± 0.1
same,CRP 14 w post first treatment,[3]; IFX responders (n = 15),5.1 ± 1.8
same,CRP 2 w post first treatment,"[3]; IFX responders (n = 15), 5 mg/kg induction",2.7 ± 0.7
same,non-responding patients,[3]; [4],9 patients
same,responding patients,[3]; [4],15 patients
